For the experiment, the target named is lysine residues on bovine serum albumin (Bos taurus, UniProt P02769). The experiment is described as follows: Protein crosslinking method (reactivity with lysine residues). The experiment is classed as biochemical. The conditions noted are these: 30 mM working concentration, 70° C., BSA 10 mg/mL; among standard reference materials. As to the method:
Selected active carbonyl compounds (glycolaldehyde, glyoxal, methyl glyoxal, and other carbonyls) were compared for their protein crosslinking capability. Standard reference materials were purchased from Sigma Aldrich [Glycolaldehyde (material no. G6805-5G, batch no. STBG0623V), Glyoxal (material no. 128465-500G, batch no. STBH8032), Methylglyoxal (material no. M0252-250 ml, batch no. BCBT1161), and other carbonyl (material no. F8775-500 ml, batch no. MKCK0272)]. Glutaraldehyde used as a reference material. The protein crosslinking capability was measured as their reactivity with lysine residues on bovine serum albumin (FIG. 6). In the Protein Crosslinking method, experiments were conducted at 30 mM working concentration of individual carbonyls and at 70° C.
Two IsoFin Products were made using two different types of natural liquid smoke flavors (CS9 and MA45GF) and were compared for total carbonyls and protein crosslinking capability. Among the two, the IsoFin B (CS9 based) was made with 50% CS9 (lot #0218938702, Zesti Smoke, Kerry America Region, Monterey, Tenn.) and 50% Homestyle vinegar flavor (IsoAge Technologies, Springfield, Mo.), whereas the IsoFin B (MA45GF based) was made with 9% MA45GF (lot #0214042186, Red Arrow, Kerry America Region, Manitowoc, Wis.)), 1% 300 grain vinegar (lot #09918209), and 90% Homestyle vinegar flavor. […]

This is an account of results in patent US20210309951A1, “USE OF NATURAL FLAVORS AND NATURAL SMOKE FLAVORS TO ENHANCE FUNCTIONALITY OF BUFFERED ORGANIC ACIDS AND METHODS FOR PRODUCING THE SAME” (Kerry Luxembourg S.à.r.I., priority 2020, published 2021).

Molecules are shown by their SMILES.

lysine residues on bovine serum albumin, sequence (P02769 25-607): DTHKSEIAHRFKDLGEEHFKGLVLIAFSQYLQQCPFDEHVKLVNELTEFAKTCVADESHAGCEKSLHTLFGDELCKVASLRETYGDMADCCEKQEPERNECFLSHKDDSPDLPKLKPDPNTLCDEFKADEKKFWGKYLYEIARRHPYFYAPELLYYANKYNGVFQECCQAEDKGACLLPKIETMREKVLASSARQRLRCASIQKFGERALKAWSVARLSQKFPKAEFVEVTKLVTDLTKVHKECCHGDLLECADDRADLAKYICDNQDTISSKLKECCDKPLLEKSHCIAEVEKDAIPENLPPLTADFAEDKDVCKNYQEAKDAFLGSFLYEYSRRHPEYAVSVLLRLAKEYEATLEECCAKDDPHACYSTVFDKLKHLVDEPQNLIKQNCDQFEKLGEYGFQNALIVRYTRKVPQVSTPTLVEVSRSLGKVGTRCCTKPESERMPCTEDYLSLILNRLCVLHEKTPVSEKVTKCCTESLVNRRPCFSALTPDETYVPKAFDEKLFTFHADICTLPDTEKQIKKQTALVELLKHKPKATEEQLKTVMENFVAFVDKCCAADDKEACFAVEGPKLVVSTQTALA

For `O=CCO` [glycolaldehyde, Glycolaldehyde], the “reactivity with lysine (protein crosslinking capability)” value is reported as “maximum reactivity with lysine”.
